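Briefly, cells in 96-well plates were exposed to five compound concentrations for 48 h, and endpoints were estimated by linear interpolation. At the GI50, growth is halved. Definition used: TGI = concentration required for complete inhibition of growth.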
How the values were obtained:
Test in all cases: growth of human tumour cells (NCI), 48 h
ACHN renal = test system: ACHN renal
SNB-19 CNS = test system: SNB-19 CNS
HT29 colon = test system: HT29 colon
RXF 393 renal = test system: RXF 393 renal
SF-295 CNS = test system: SF-295 CNS
K-562 leukemia = test system: K-562 leukemia
NCI-H226 lung = test system: NCI-H226 lung
U251 CNS = test system: U251 CNS
SF-539 CNS = test system: SF-539 CNS
SF-268 CNS = test system: SF-268 CNS

Row | Structure (SMILES) | GI50 (ACHN renal) | TGI (ACHN renal) | GI50 (SNB-19 CNS) | TGI (SNB-19 CNS) | GI50 (HT29 colon) | TGI (HT29 colon) | GI50 (RXF 393 renal) | TGI (RXF 393 renal) | GI50 (SF-295 CNS) | TGI (SF-295 CNS) | GI50 (K-562 leukemia) | TGI (K-562 leukemia) | GI50 (NCI-H226 lung) | TGI (NCI-H226 lung) | GI50 (U251 CNS) | TGI (U251 CNS) | GI50 (SF-539 CNS) | TGI (SF-539 CNS) | GI50 (SF-268 CNS) | TGI (SF-268 CNS)
1 | CCCCCCCCCCCCOC1C(CNCC2OC3OC(C)(C)OC3C2NC(=O)Nc2ccc(C(=O)OCC)cc2)OC2OC(C)(C)OC21 (stereo not given) | 3.43 µM | 10.9 µM | 13.7 µM | 27.7 µM | 1.71 µM | 3.56 µM | 2.73 µM | 4.8 µM | 6.31 µM | 20 µM | 2.95 µM | > 100 µM | 6.23 µM | 22.7 µM | 1.94 µM | 3.71 µM | 1.79 µM | 3.52 µM | 1.63 µM | 3.24 µM
2 | CNC(=O)c1cc(Oc2ccc3c(c2)sc2nc(-c4ccc(N)cc4)cn23)ccn1 | 0.75 µM | > 100 µM | 0.405 µM | > 100 µM | 0.197 µM | 0.802 µM | 0.297 µM | > 100 µM | 0.104 µM | > 100 µM | 0.0911 µM | > 100 µM | 2.01 µM | > 100 µM | 0.194 µM | > 100 µM | 0.324 µM | > 100 µM | 0.791 µM | > 100 µM
3 | C[C@@H]1Cc2c([nH]c3ccccc23)[C@@H](c2c(F)cc(/C=C/C(=O)O)cc2F)N1CC(C)(C)F | 12.7 µM | 28 µM | 13.7 µM | 32.3 µM | 14.5 µM | 31.3 µM | 11.7 µM | 26.2 µM | 8.65 µM | 22.6 µM | 13.6 µM | 46.1 µM | 18.2 µM | 45.2 µM | 10.5 µM | 25 µM | 14.5 µM | 32.4 µM | 14.2 µM | 31.8 µM
4 | OCCNCO | – | > 100 µM | – | > 100 µM | – | > 100 µM | – | > 100 µM | – | > 100 µM | – | > 100 µM | – | > 100 µM | – | > 100 µM | – | > 100 µM | – | > 100 µM
5 | C#CC(C)(C)Oc1cc(O)c2c(=O)c3ccccc3n(C)c2c1 | – | > 100 µM | – | > 100 µM | – | > 100 µM | – | > 100 µM | – | > 100 µM | – | > 100 µM | – | > 100 µM | – | > 100 µM | – | 58.1 µM | – | > 100 µM
6 | CCCCCCCCCCCCCCC1OC(=O)c2ccccc21 (stereo not given) | – | > 100 µM | – | > 100 µM | – | > 100 µM | – | > 100 µM | – | > 100 µM | – | > 100 µM | – | > 100 µM | – | > 100 µM | – | > 100 µM | – | > 100 µM
7 | COc1cc2c(NCCCCCCO[N+](=O)[O-])ncnc2c(OC)c1OC | – | > 100 µM | – | > 100 µM | – | > 62 µM | – | 75.2 µM | – | 58.8 µM | – | > 100 µM | – | 45.5 µM | – | > 100 µM | – | 71.1 µM | – | > 100 µM
8 | CC[n+]1ccc2c(c1)C(=O)c1nccc3c1c-2nc1ccccc13 | 1.13 µM | > 15.5 µM | 0.212 µM | 0.856 µM | 4.15 µM | 23.1 µM | 0.93 µM | 3.68 µM | 0.634 µM | 3.76 µM | 3 µM | 22.2 µM | 1.13 µM | 5.51 µM | 0.35 µM | 1.28 µM | 0.489 µM | 1.47 µM | 0.34 µM | 3.63 µM
9 | O=[n+]1c(CBr)c(CBr)n([O-])c2ccccc21 | 1.76 µM | 3.18 µM | 17.6 µM | 38.3 µM | 1.91 µM | 3.49 µM | 4.66 µM | 16.9 µM | 17.2 µM | 36 µM | 3.46 µM | 17.2 µM | 11.7 µM | 30.7 µM | 14.5 µM | 29.8 µM | 13.3 µM | 26.3 µM | 15.9 µM | 33.6 µM
10 | CN1CCN(Cc2ccc(NC(=O)c3cncc(C#Cc4cnc(N)c5ccccc45)c3)cc2C(F)(F)F)CC1 | 0.145 µM | 0.523 µM | 0.563 µM | 1.22 µM | 0.28 µM | 1.29 µM | 0.163 µM | 0.563 µM | 0.486 µM | 0.955 µM | 0.00333 µM | 0.524 µM | 0.393 µM | 1.13 µM | 0.279 µM | 0.763 µM | 0.38 µM | 0.792 µM | 0.321 µM | 0.832 µM
11 | N#Cc1c(O)c2c(c(O)c1C#N)C(=O)c1ccccc1C2=O | 2.72 µM | 9.96 µM | 2.86 µM | 22.2 µM | 0.563 µM | 3.96 µM | 1.86 µM | 6.27 µM | 1.88 µM | 14.2 µM | 1.9 µM | 6.63 µM | 2.83 µM | 25.3 µM | 1.92 µM | 5.54 µM | 2.6 µM | 5.53 µM | 2.8 µM | 16 µM
12 | Cc1c(Cl)cccc1Nc1ncccc1C(=O)O | 58.5 µM | > 100 µM | > 100 µM | > 100 µM | > 100 µM | > 100 µM | > 100 µM | > 100 µM | 16.7 µM | 76.7 µM | 62.7 µM | > 100 µM | > 100 µM | > 100 µM | 63.4 µM | > 100 µM | 77.2 µM | > 100 µM | > 100 µM | > 100 µM
13 | CC(=O)/C=C/c1cccc(N=S)c1 | – | > 53.3 µM | – | > 87.5 µM | – | 19.5 µM | – | 53.8 µM | – | 54.3 µM | – | > 35.9 µM | – | > 83.3 µM | – | 20.8 µM | – | 20.8 µM | – | > 69.6 µM
14 | O=C(Nc1ccccc1[N+](=O)[O-])c1ccccc1 | – | > 100 µM | – | > 100 µM | – | > 100 µM | – | > 100 µM | – | > 100 µM | – | > 100 µM | – | > 100 µM | – | > 100 µM | – | > 100 µM | – | > 100 µM

— PubChem BioAssay (NCI)
